In ChEMBL document CHEMBL4513101, “Naegleria gruberi Pathogen Box compounds screening” (2021):
Activity calls are given as the source filed them. Cut-off read from the data, not from the text of the source: active = inhibition of 80% or more and inactive = less.

Tested on: Naegleria gruberi
Test: microbe, parasite or virus in culture
Assay type: functional
Settings: NEG-M, CONC 10 uM
Description: Growth inhibiting activity of Naegleria gruberi in vitro

SMILES | inhibition at 10 µM
CN1CCN(S(=O)(=O)c2ccc(-c3ccc4c(Nc5ccc6nn[nH]c6c5)ccnc4c3)cc2)CC1 | 10.8% (not active)
CCS(=O)(=O)N(Cc1ccco1)Cc1cc2ccc(C)cc2nc1O | 0% (not active)
O=C(c1cc2ccccc2o1)N1CCN(Cc2ccc3c(c2)OCO3)CC1 | 28.6% (not active)
CCCn1c(CNc2ccccc2O)nc2ccccc21 | 39.9% (not active)
CC(=O)Nc1ccc(-c2noc(CC3CCCN(Cc4cccc(F)c4C)C3)n2)cc1 (stereo unspecified) | 37.2% (not active)
COC(=O)Nc1nc2cc(C(=O)c3ccccc3)ccc2[nH]1 [MEBENDAZOLE] | 29.8% (not active)
CCOc1ccc2cc(-c3nn(C(C)(C)C)c(N)c3C(N)=O)cnc2c1 | 92.5% (active)
Cc1ncc(-c2ccnc(Nc3ccc(S(C)(=O)=O)cc3)n2)n1C(C)C [AZD-5438] | 47.7% (not active)
CNC(=O)c1cc(S(=O)(=O)N2CCN(c3ccccn3)CC2)cs1 | 32.9% (not active)
CC(C)(C)c1cc(C(=O)Nc2cccnc2)cc(C(=O)Nc2cccnc2)c1 | 28% (not active)
Nc1ccc2ncnc(Nc3ccc(OCc4cccc(F)c4)c(Cl)c3)c2c1 | 10.6% (not active)
Cc1nc(-c2ccccn2)nc(NCCc2ccc(S(C)(=O)=O)cc2)c1Cl | 26.6% (not active)
CC(C)c1ncc(-c2ccncc2)c([C@H]2CC[C@H](CNC(=O)c3cccnc3)CC2)n1 | 32.5% (not active)
CN1CCN(c2nccc3[nH]c(-c4cccc(F)c4)cc23)CC1 | 0% (not active)
COc1cccn2c(C(=O)N3CCCCC3)c(C(F)(F)F)nc12 | 17% (not active)
Cc1cc(O)nc(-n2nc(C)cc2C)n1 | 3.8% (not active)
Cc1cccc(NC(=O)c2cc(S(=O)(=O)N(C)c3ccc(F)cc3)ccc2Cl)n1 | 42.3% (not active)
COc1ccc(C2=NN(C3CCCCCC3)C(=O)C2(C)C)cc1OCCCCOc1ccc(-c2nn[nH]n2)cc1 | 36.8% (not active)

SMILES | inhibition at 10 µM
Nc1nccc2ccc(-c3ccc4nccn4c3)cc12 | 8.2% (not active)
NC(CC(=O)c1ccc(Cl)cc1Cl)C(Cl)(Cl)Cl (stereo unspecified) | 11.7% (not active)
CC(=O)N(CCN(C(=O)c1ccc(F)cc1)c1ccccc1)c1ccccc1 | 21.3% (not active)
FC(F)(F)c1cnc(Sc2nnc(-c3ccncc3)o2)c(Cl)c1 | 42.8% (not active)
CC(C(=O)N1CCCC1)N1CCN(S(=O)(=O)c2ccc(C(C)(C)C)cc2)CC1 (stereo unspecified) | 4.7% (not active)
Cc1nc(-c2ccccn2)nc(N(C)CCc2ccccc2)c1Cl | 21.1% (not active)
COc1ccc(OC(C)C(=O)Nc2ccc(Cl)cc2C)cc1 (stereo unspecified) | 34% (not active)
COc1cc(C2=NCCN2)ccc1-n1cc(-c2cccc(C3=NCCN3)c2)nn1 | 16.2% (not active)
CC(c1cc(Cl)cc(Cl)c1)N(C)c1ncc2c(N)nc(N)nc2n1 (stereo unspecified) | 11% (not active)
CCCn1nnc(NC(=O)COc2ccc(C3CCCCC3)cc2)n1 | 33% (not active)
CCCc1ccc(S(=O)(=O)Nc2ccc(CN3CCN(CC4CC4)CC3)cc2)cc1 | 30.3% (not active)
COc1ccc(C2=NCCN2)cc1-c1cn(-c2cccc(C3=NCCN3)c2)nn1 | 21.7% (not active)
CCc1cc(=O)n(C)c(SC(C)C(=O)Nc2ccc(F)cc2)n1 (stereo unspecified) | 10.4% (not active)
COc1cc2ncnc(NC3CCN(Cc4ccccc4)CC3)c2cc1OC | 13.6% (not active)
O=C(Nc1cccnc1)c1c(O)c2cccc3c2n(c1=O)CC3 | 40.3% (not active)
COC(=O)c1c(NC(=O)c2c(F)c(F)c(F)c(F)c2F)sc2c1CCCCC2 | 30.9% (not active)
O=C(Nc1ccccc1)c1ccc(-c2cc3ccncc3cc2OC2CCNCC2)s1 | 12.6% (not active)
CC(C)(C)CN1C(=O)C(c2ccccc2)(c2ccccc2)N=C1N | 19.2% (not active)
